ChEMBL document CHEMBL1150753, “Antitumor agents, 93. Bruceanol C, a new cytotoxic quassinoid from Brucea antidysenterica” (1988)
In brackets after ≈: the same amount, converted by molar mass.

Key:
Assay type in all cases: functional
Details in all cases: read-out: ED50 (the source's name)
[1] = tested on: KB; assay: Cytotoxicity against human KB cells
[2] = tested on: HCT-8; assay: Cytotoxicity against human HCT8 cells
[3] = tested on: A549; assay: Cytotoxicity against human A549 cells
[4] = tested on: P388; assay: Cytotoxicity against mouse P388 cells

COC(=O)[C@]12OC[C@]34[C@H]([C@@H](O)[C@@H]1O)[C@@]1(C)[C@H](O)C(=O)C=C(C)[C@@H]1C[C@H]3OC(=O)[C@H](OC(=O)/C=C(\C)C(C)(C)OC(C)=O)[C@@H]24 [Bruceanol C]
EC50 [1]: < 0.04 µg/mL | EC50 [2]: < 0.4 µg/mL | EC50 [3]: 0.48 µg/mL (≈ 0.791 µM) | EC50 [4]: 0.56 µg/mL (≈ 0.923 µM)
